Test results taken from patent publication US12172995B2, “Substituted indole and indazole compounds” (BRISTOL-MYERS SQUIBB COMPANY, priority 2018, dated 2024).
pIC50: −log10 of the molar value.

Assays:
Type in all cases: cell-based
human TLR7 = target: T1, human TLR7 (Homo sapiens, UniProt Q9NYK1); test: TLR7 inhibition reporter assay (HEK-Blue SEAP); settings: HEK-Blue cells overexpressing human TLR7, stimulated with gardiquimod 7.5 μM, 22 hour incubation
T1 construct: host or cells: HEK-Blue cells
T1 sequence (Q9NYK1 27-1049): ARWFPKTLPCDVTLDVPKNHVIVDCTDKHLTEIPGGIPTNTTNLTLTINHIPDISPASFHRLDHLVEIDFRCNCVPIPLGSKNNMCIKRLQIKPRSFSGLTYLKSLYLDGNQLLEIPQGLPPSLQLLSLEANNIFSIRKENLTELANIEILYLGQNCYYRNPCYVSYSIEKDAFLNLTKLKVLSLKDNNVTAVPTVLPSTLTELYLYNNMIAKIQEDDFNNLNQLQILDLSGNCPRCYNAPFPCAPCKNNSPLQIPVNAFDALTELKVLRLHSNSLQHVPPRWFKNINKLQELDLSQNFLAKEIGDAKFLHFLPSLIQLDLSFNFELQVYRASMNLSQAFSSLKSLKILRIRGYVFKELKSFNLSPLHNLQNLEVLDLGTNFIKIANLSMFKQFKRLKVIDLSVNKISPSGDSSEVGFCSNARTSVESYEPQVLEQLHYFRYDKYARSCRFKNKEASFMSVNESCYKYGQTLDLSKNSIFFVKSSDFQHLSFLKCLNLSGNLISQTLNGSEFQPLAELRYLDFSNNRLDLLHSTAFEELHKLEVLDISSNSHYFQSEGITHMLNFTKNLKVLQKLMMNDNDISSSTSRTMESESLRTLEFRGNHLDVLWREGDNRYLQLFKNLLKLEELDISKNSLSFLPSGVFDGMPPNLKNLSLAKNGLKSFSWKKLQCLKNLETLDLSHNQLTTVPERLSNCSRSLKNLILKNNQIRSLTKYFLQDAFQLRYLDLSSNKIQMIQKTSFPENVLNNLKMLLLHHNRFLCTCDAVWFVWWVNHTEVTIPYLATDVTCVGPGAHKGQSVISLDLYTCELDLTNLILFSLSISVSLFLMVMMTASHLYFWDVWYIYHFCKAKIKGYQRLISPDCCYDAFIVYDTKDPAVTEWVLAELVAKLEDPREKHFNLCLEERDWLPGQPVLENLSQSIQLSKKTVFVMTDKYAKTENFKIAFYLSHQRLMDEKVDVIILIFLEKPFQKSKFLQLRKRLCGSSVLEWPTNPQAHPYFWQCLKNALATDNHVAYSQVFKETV
Description: (§1) TLR7/8/9 Inhibition Reporter Assays
(§2) HEK-Blue™-cells (Invivogen) overexpressing human TLR7, TLR8 or TLR9 receptors were used for screening inhibitors of these receptors using an inducible SEAP (secreted embryonic alkaline phosphatase) reporter gene under the control of the IFN-β minimal promoter fused to five NF-κB and AP-1-binding sites. Briefly, cells are seeded into Greiner 384 well plates (15000 cells per well for TLR7, 20,000 for TLR8 and 25,000 for TLR9) and then treated with test compounds in DMSO to yield a final dose response concentration range of 0.05 nM to 50 μM. After a 30 minute compound pre-treatment at room temperature, the cells are then stimulated with a TLR7 ligand (gardiquimod at a final concentration of 7.5 μM), TLR8 ligand (R848 at a final concentration of 15.9 μM) or TLR9 ligand (ODN2006 at a final concentration of 5 nM) to activate NF-κB and AP-1 which induce the production of SEAP. After a 22 hour incubation at 37° C., 5% CO2, SEAP levels are determined with the addition of HEK-Blue™ Detection reagent (Invivogen), a cell culture medium that allows for detection of SEAP, according to manufacturer's specifications. The percent inhibition is determined as the % reduction in the HEK-Blue signal present in wells treated with agonist plus DMSO alone compared to wells treated with a known inhibitor.

human TLR9 = target: T2, human TLR9 (Homo sapiens, UniProt Q9NR96); test: TLR9 inhibition reporter assay (HEK-Blue SEAP); settings: HEK-Blue cells overexpressing human TLR9, stimulated with ODN2006 5 nM, 22 hour incubation
T2 construct: host or cells: HEK-Blue cells
T2 sequence (Q9NR96 26-1032): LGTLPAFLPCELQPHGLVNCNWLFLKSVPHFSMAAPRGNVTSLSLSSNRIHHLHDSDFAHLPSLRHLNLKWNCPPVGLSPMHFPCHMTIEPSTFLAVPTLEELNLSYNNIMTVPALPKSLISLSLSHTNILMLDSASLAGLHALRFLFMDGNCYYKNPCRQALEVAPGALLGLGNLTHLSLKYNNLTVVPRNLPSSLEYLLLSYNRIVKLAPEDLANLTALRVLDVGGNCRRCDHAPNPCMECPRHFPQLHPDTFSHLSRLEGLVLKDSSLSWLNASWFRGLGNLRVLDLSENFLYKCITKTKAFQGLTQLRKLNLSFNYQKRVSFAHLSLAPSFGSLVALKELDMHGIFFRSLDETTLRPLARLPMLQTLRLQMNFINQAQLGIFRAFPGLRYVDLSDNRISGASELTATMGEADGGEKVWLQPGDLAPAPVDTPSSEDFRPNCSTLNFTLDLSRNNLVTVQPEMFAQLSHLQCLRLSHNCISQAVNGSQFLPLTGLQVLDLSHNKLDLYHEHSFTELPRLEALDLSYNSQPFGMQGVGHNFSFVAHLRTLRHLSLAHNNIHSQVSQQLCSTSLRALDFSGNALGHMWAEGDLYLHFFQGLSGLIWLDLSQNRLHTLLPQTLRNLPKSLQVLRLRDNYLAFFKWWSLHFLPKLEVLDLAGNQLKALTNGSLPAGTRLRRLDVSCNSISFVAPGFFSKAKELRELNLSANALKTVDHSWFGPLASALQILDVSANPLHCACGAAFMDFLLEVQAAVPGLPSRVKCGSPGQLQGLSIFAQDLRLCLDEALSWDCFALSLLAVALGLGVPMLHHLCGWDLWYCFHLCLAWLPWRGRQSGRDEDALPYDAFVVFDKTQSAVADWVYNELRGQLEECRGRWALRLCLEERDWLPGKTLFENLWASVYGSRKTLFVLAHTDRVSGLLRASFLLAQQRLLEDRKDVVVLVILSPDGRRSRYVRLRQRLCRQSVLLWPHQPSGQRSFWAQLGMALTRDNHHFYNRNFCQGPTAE
Description: as §1, §2

human TLR8 = target: T3, human TLR8 (Homo sapiens, UniProt Q9NR97); test: TLR8 inhibition reporter assay (HEK-Blue SEAP); settings: HEK-Blue cells overexpressing human TLR8, stimulated with R848 15.9 μM, 22 hour incubation
T3 construct: host or cells: HEK-Blue cells
T3 sequence (Q9NR97 27-1041): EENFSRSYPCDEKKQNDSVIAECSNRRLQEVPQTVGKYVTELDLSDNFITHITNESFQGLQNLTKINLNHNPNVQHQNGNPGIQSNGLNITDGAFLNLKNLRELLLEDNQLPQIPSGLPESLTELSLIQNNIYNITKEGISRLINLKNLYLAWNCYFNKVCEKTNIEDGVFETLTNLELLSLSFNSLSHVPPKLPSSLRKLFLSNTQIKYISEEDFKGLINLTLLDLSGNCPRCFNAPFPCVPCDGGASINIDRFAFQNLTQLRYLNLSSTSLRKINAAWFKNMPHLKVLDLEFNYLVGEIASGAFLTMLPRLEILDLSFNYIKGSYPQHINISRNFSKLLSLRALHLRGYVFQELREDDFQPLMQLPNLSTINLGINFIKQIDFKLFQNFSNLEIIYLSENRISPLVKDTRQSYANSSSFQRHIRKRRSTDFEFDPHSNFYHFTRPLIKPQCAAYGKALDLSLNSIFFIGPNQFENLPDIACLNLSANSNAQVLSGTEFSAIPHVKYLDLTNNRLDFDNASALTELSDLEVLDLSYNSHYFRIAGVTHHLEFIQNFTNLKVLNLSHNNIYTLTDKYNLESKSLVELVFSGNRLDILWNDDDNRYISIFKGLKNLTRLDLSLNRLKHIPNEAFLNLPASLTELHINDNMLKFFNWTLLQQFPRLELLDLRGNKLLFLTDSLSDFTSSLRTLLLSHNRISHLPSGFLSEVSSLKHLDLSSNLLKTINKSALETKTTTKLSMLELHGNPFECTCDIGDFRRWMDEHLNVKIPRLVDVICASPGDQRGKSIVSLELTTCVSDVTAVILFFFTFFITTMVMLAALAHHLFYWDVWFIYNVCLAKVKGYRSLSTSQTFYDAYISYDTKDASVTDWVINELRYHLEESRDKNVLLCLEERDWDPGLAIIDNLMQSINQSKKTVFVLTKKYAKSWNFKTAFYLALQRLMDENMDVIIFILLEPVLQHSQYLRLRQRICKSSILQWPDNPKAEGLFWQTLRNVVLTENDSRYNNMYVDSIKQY
Description: as §1, §2

| SMILES | pIC50 (human TLR7) | pIC50 (human TLR9) | pIC50 (human TLR8) |
| --- | --- | --- | --- |
| COc1cc(-c2ccc3c(C4CCNCC4)c[nH]c3c2)cn2ncnc12 [Example 11, 8-methoxy-6-(3-(piperidin-4-yl)-1H-indol-6-yl)-[1,2,4]triazolo[1,5-a]pyridine] | 7.19 | 6.44 | 6.61 |
| Cc1cc2c(C3CCCNC3)n[nH]c2cc1-c1ccc2ncnn2c1 (stereo not shown) [Example 58, 6-(5-methyl-3-(piperidin-3-yl)-1H-indazol-6-yl)-[1,2,4]triazolo[1,5-a] pyridine] | 7.12 | 6.18 | 8.55 |
| Cc1cc(-c2cc3[nH]nc(C4CCC(N5CCC6(COC6)C5)CC4)c3cc2C(C)C)cn2ncnc12 (single isomer, unassigned) [Example 160, 6-(4-(5-isopropyl-6-(8-methyl-[1,2,4]triazolo[1,5-a]pyridin-6-yl)-1H-indazol-3-yl)cyclohexyl)-2-oxa-6-azaspiro[3.4]octane] | – | 5.14 | 9.40 |
| Cc1cc(-c2cc3[nH]nc(C4CCC(N5CCC(C)(O)C5)CC4)c3cc2C(C)C)cn2ncnc12 (single isomer, unassigned) [Example 165, 1-(4-(5-isopropyl-6-(8-methyl-[1,2,4]triazolo[1,5-a]pyridin-6-yl)-1H-indazol-3-yl)cyclohexyl)-3-methylpyrrolidin-3-ol] | 9.30 | 4.88 | – |
| Cc1cc(-c2cc3[nH]nc(C4CCC(NCC(=O)N(C)C)CC4)c3cc2C(C)C)cn2ncnc12 (single isomer, unassigned) [Example 124, 2-((4-(5-isopropyl-6-(8-methyl-[1,2,4]triazolo[1,5-a]pyridin-6-yl)-1H-indazol-3-yl)cyclohexyl)amino)-N,N-dimethylacetamide] | 9.52 | 4.96 | – |
| CCc1cc2c(C3CCN(C4COC4)CC3)n[nH]c2cc1-c1cc(C)c2ncnn2c1 [Example 89, 6-(5-ethyl-3-(1-(oxetan-3-yl)piperidin-4-yl)-1H-indazol-6-yl)-8-methyl-[1,2,4]triazolo[1,5-a]pyridine] | 8.08 | – | 9.15 |
| Cc1cc(-c2cc3[nH]nc(C4CCC(N5CCC6(COC6)C5)CC4)c3cc2C(C)C)cn2ncnc12 (single isomer, unassigned) [Example 159, 6-(4-(5-isopropyl-6-(8-methyl-[1,2,4]triazolo[1,5-a]pyridin-6-yl)-1H-indazol-3-yl)cyclohexyl)-2-oxa-6-azaspiro[3.4]octane] | – | 5.13 | 10.00 |

Further lines, results first:

| pIC50 (human TLR7) | pIC50 (human TLR9) | pIC50 (human TLR8) | SMILES |
| --- | --- | --- | --- |
| 8.14 | 5.72 | 7.85 | Cc1cc(-c2cc(C)c3ncnn3c2)cc2[nH]nc(C3CCN(C(=O)CN(C)C)CC3)c12 [Example 75, 2-(dimethylamino)-1-(4-(4-methyl-6-(8-methyl-[1,2,4]triazolo[1,5-a]pyridin-6-yl)-1H-indazol-3-yl)piperidin-1-yl)ethan-1-one] |
| 7.88 | 5.24 | 8.52 | Cc1cc2c(OC3CCN(C(=O)CN(C)C)CC3)n[nH]c2cc1-c1cc(C)c2ncnn2c1 [Example 170, 2-(dimethylamino)-1-(4-((5-methyl-6-(8-methyl-[1,2,4]triazolo[1,5-a]pyridin-6-yl)-1H-indazol-3-yl)oxy)piperidin-1-yl)ethan-1-one] |
| 9.30 | 5.21 | 10.00 | CCCN1CCC(c2n[nH]c3cc(-c4cc(C)c5ncnn5c4)c(C(C)C)cc23)CC1 [Example 9, 6-(5-isopropyl-3-(1-propylpiperidin-4-yl)-1H-indazol-6-yl)-8-methyl-[1,2,4]triazolo[1,5-a] pyridine] |
| 8.72 | – | 10.00 | Cc1cc(-c2cc3[nH]nc(C4CCN(CCC#N)CC4)c3cc2C(C)C)cn2ncnc12 [Example 121, 3-(4-(5-isopropyl-6-(8-methyl-[1,2,4]triazolo[1,5-a]pyridin-6-yl)-1H-indazol-3-yl)piperidin-1-yl)propanenitrile] |
| 6.25 | – | 7.49 | Cc1cc2cn[nH]c2cc1-c1cc(C)c2ncnn2c1 [Example 63, 8-methyl-6-(5-methyl-1H-indazol-6-yl)-[1,2,4]triazolo[1,5-a]pyridine] |
| 9.70 | 5.18 | – | Cc1cc(-c2cc3[nH]nc(C4CCC(N(C)C)CC4)c3cc2C(C)C)cn2ncnc12 (stereo not shown) [Example 114, 4-(5-isopropyl-6-(8-methyl-[1,2,4]triazolo[1,5-a]pyridin-6-yl)-1H-indazol-3-yl)-N,N-dimethylcyclohexan-1-amine] |
